From the OligoGym collection
HELM strings list units from the 5' end as sugar, base in round brackets, then linkage (d deoxyribose, r ribose, m 2'-O-methyl, p phosphodiester). Strings are as the collection lists them; they lack the last nucleoside at the 3' end of the tested compound. [moe] = 2'-O-(2-methoxyethyl) (MOE); [sp] = phosphorothioate linkage; [m5C] = 5-methylcytosine

Target: ATXN2
Experiment: mouse, dose not given
Settings: ASO

Row | Substance | 3 h FOB score
1 | RNA1{[moe](A)[sp].[moe]([m5C])p.[moe](A)p.[moe]([m5C])[sp].[moe](A)[sp].d(G)[sp].d(T)[sp].d(T)[sp].d(T)[sp].d([m5C])[sp].d(A)[sp].d([m5C])[sp].d(T)[sp].d(A)[sp].d(G)[sp].[moe](G)p.[moe](T)p.[moe](T)[sp].[moe]([m5C])}$$$$ (last 3' nucleoside missing) | 2 score 0-7
2 | RNA1{[moe](A)[sp].[moe]([m5C])p.[moe](A)p.[moe]([m5C])p.[moe](A)[sp].d(G)[sp].d(T)[sp].d(T)[sp].d(T)[sp].d([m5C])[sp].d(A)[sp].d([m5C])[sp].d(T)[sp].d(A)[sp].d(G)[sp].[moe](G)p.[moe](T)p.[moe](T)[sp].[moe]([m5C])}$$$$ (last 3' nucleoside missing) | 4.75 score 0-7
3 | RNA1{[moe](A)[sp].[moe]([m5C])p.[moe](A)p.[moe]([m5C])p.[moe](A)p.[moe](G)p.d(T)[sp].d(T)[sp].d(T)[sp].d([m5C])[sp].d(A)[sp].d([m5C])[sp].d(T)[sp].d(A)[sp].d(G)[sp].d(G)[sp].[moe](T)p.[moe](T)[sp].[moe]([m5C])}$$$$ (last 3' nucleoside missing) | 1 score 0-7
4 | RNA1{[moe](A)[sp].[moe]([m5C])p.[moe](A)p.[moe]([m5C])p.[moe](A)p.d(G)[sp].d(T)[sp].d(T)[sp].d(T)[sp].d([m5C])[sp].d(A)[sp].d([m5C])[sp].d(T)[sp].d(A)[sp].d(G)[sp].[moe](G)p.[moe](T)p.[moe](T)[sp].[moe]([m5C])}$$$$ (last 3' nucleoside missing) | 0 score 0-7
5 | RNA1{[moe](A)[sp].[moe]([m5C])p.[moe](A)p.[moe]([m5C])p.d(A)[sp].d(G)[sp].d(T)[sp].d(T)[sp].d(T)[sp].d([m5C])[sp].d(A)[sp].d([m5C])[sp].d(T)[sp].d(A)[sp].[moe](G)p.[moe](G)p.[moe](T)p.[moe](T)[sp].[moe]([m5C])}$$$$ (last 3' nucleoside missing) | 0 score 0-7
6 | RNA1{[moe](A)[sp].[moe]([m5C])p.[moe](G)p.[moe]([m5C])p.[moe](G)p.d(G)[sp].d(T)[sp].d(G)[sp].d(A)[sp].d(A)[sp].d(T)[sp].d(T)[sp].d([m5C])[sp].d(T)[sp].d(G)[sp].[moe](T)p.[moe]([m5C])p.[moe](T)[sp].[moe]([m5C])}$$$$ (last 3' nucleoside missing) | 1 score 0-7
7 | RNA1{[moe](A)[sp].[moe]([m5C])p.[moe](G)p.[moe]([m5C])p.[moe](T)p.d(G)[sp].d(T)[sp].d(A)[sp].d(T)[sp].d(T)[sp].d(T)[sp].d(T)[sp].d(T)[sp].d(A)[sp].d([m5C])[sp].[moe](T)p.[moe]([m5C])p.[moe](A)[sp].[moe]([m5C])}$$$$ (last 3' nucleoside missing) | 0 score 0-7
8 | RNA1{[moe](A)[sp].[moe]([m5C])p.[moe](T)p.[moe](G)p.[moe](A)p.d(G)[sp].d(T)[sp].d(T)[sp].d([m5C])[sp].d(T)[sp].d(A)[sp].d(T)[sp].d(A)[sp].d(G)[sp].d(G)[sp].[moe](T)p.[moe](G)p.[moe]([m5C])[sp].[moe](T)}$$$$ (last 3' nucleoside missing) | 3 score 0-7
9 | RNA1{[moe](A)[sp].[moe]([m5C])p.[moe](T)p.[moe](G)p.[moe](G)p.d(A)[sp].d(T)[sp].d(T)[sp].d([m5C])[sp].d(T)[sp].d(G)[sp].d(T)[sp].d(A)[sp].d([m5C])[sp].d(T)[sp].[moe](T)p.[moe](T)p.[moe](T)[sp].[moe]([m5C])}$$$$ (last 3' nucleoside missing) | 2 score 0-7
10 | RNA1{[moe](A)[sp].[moe]([m5C])p.[moe](T)p.[moe](G)p.[moe](T)p.d(T)[sp].d(T)[sp].d([m5C])[sp].d(G)[sp].d(A)[sp].d([m5C])[sp].d([m5C])[sp].d(T)[sp].d([m5C])[sp].d(T)[sp].[moe](G)p.[moe](A)p.[moe](A)[sp].[moe](A)}$$$$ (last 3' nucleoside missing) | 4 score 0-7
11 | RNA1{[moe](A)[sp].[moe]([m5C])p.[moe](T)p.[moe](T)p.[moe](G)p.d(T)[sp].d(A)[sp].d([m5C])[sp].d(T)[sp].d(T)[sp].d([m5C])[sp].d(A)[sp].d([m5C])[sp].d(A)[sp].d(T)[sp].[moe](T)p.[moe](T)p.[moe](G)[sp].[moe](G)}$$$$ (last 3' nucleoside missing) | 1 score 0-7
12 | RNA1{[moe](A)[sp].[moe]([m5C])p.[moe](T)p.[moe](T)p.[moe](T)[sp].d(T)[sp].d([m5C])[sp].d(T)[sp].d([m5C])[sp].d(A)[sp].d(T)[sp].d(G)[sp].d(T)[sp].[moe](G)p.[moe]([m5C])p.[moe](G)[sp].[moe](G)}$$$$ (last 3' nucleoside missing) | 3.25 score 0-7
13 | RNA1{[moe](A)[sp].[moe]([m5C])p.[moe](T)p.[moe](T)p.[moe](T)p.[moe](T)p.d([m5C])[sp].d(T)[sp].d([m5C])[sp].d(A)[sp].d(T)[sp].d(G)[sp].d(T)[sp].d(G)[sp].d([m5C])[sp].d(G)[sp].[moe](G)p.[moe]([m5C])[sp].[moe](A)}$$$$ (last 3' nucleoside missing) | 6.5 score 0-7
14 | RNA1{[moe](A)[sp].[moe]([m5C])p.[moe](T)p.[moe](T)p.[moe](T)p.d(T)[sp].d([m5C])[sp].d(T)[sp].d([m5C])[sp].d(A)[sp].d(T)[sp].d(G)[sp].d(T)[sp].d(G)[sp].d([m5C])[sp].[moe](G)p.[moe](G)p.[moe]([m5C])[sp].[moe](A)}$$$$ (last 3' nucleoside missing) | 5 score 0-7
15 | RNA1{[moe](A)[sp].[moe]([m5C])p.[moe](T)p.[moe](T)p.[moe]([m5C])[sp].d(T)[sp].d([m5C])[sp].d(T)[sp].d(A)[sp].d(T)[sp].d(T)[sp].d(T)[sp].d([m5C])[sp].[moe](T)p.[moe](T)p.[moe](T)[sp].[moe](G)}$$$$ (last 3' nucleoside missing) | 2 score 0-7
16 | RNA1{[moe](A)[sp].[moe]([m5C])p.[moe](T)p.[moe](T)p.[moe]([m5C])p.[moe](T)p.d([m5C])[sp].d(T)[sp].d(A)[sp].d(T)[sp].d(T)[sp].d(T)[sp].d([m5C])[sp].d(T)[sp].d(T)[sp].d(T)[sp].[moe](G)p.[moe](T)[sp].[moe]([m5C])}$$$$ (last 3' nucleoside missing) | 1.25 score 0-7
17 | RNA1{[moe](A)[sp].[moe]([m5C])p.[moe](T)p.[moe](T)p.[moe]([m5C])p.d(A)[sp].d([m5C])[sp].d(A)[sp].d(T)[sp].d(T)[sp].d(T)[sp].d(G)[sp].d(G)[sp].d(A)[sp].d(G)[sp].[moe]([m5C])p.[moe]([m5C])p.[moe]([m5C])[sp].[moe](T)}$$$$ (last 3' nucleoside missing) | 5.75 score 0-7
18 | RNA1{[moe](A)[sp].[moe]([m5C])p.[moe](T)p.[moe](T)p.[moe]([m5C])p.d(T)[sp].d([m5C])[sp].d(T)[sp].d(A)[sp].d(T)[sp].d(T)[sp].d(T)[sp].d([m5C])[sp].d(T)[sp].d(T)[sp].[moe](T)p.[moe](G)p.[moe](T)[sp].[moe]([m5C])}$$$$ (last 3' nucleoside missing) | 3 score 0-7
19 | RNA1{[moe](A)[sp].[moe]([m5C])p.[moe](T)p.[moe](T)p.d(T)[sp].d(T)[sp].d([m5C])[sp].d(T)[sp].d([m5C])[sp].d(A)[sp].d(T)[sp].d(G)[sp].d(T)[sp].d(G)[sp].[moe]([m5C])p.[moe](G)p.[moe](G)p.[moe]([m5C])[sp].[moe](A)}$$$$ (last 3' nucleoside missing) | 2.5 score 0-7
20 | RNA1{[moe](A)[sp].[moe]([m5C])p.[moe](T)p.[moe](T)p.d([m5C])[sp].d(T)[sp].d([m5C])[sp].d(T)[sp].d(A)[sp].d(T)[sp].d(T)[sp].d(T)[sp].d([m5C])[sp].d(T)[sp].[moe](T)p.[moe](T)p.[moe](G)p.[moe](T)[sp].[moe]([m5C])}$$$$ (last 3' nucleoside missing) | 0 score 0-7
21 | RNA1{[moe](A)[sp].[moe]([m5C])p.[moe](T)p.[moe]([m5C])p.[moe](T)p.d([m5C])[sp].d([m5C])[sp].d(A)[sp].d(T)[sp].d(T)[sp].d(A)[sp].d(T)[sp].d(T)[sp].d(T)[sp].d([m5C])[sp].[moe](T)p.[moe](T)p.[moe]([m5C])[sp].[moe](A)}$$$$ (last 3' nucleoside missing) | 1 score 0-7
22 | RNA1{[moe](G)[sp].[moe](A)p.[moe](A)p.[moe](G)p.[moe](T)p.d([m5C])[sp].d(T)[sp].d(T)[sp].d(G)[sp].d(T)[sp].d(T)[sp].d([m5C])[sp].d(A)[sp].d(G)[sp].d(T)[sp].[moe](G)p.[moe](T)p.[moe]([m5C])[sp].[moe]([m5C])}$$$$ (last 3' nucleoside missing) | 3.75 score 0-7
23 | RNA1{[moe](G)[sp].[moe](A)p.[moe](A)p.[moe](G)p.[moe]([m5C])p.d(A)[sp].d(G)[sp].d(A)[sp].d(T)[sp].d(T)[sp].d(T)[sp].d(T)[sp].d(T)[sp].d(T)[sp].d(T)[sp].[moe](T)p.[moe](T)p.[moe](T)[sp].[moe](T)}$$$$ (last 3' nucleoside missing) | 3 score 0-7
24 | RNA1{[moe](G)[sp].[moe](A)p.[moe](A)p.[moe](T)p.[moe]([m5C])p.d(T)[sp].d(T)[sp].d(A)[sp].d(T)[sp].d(T)[sp].d(A)[sp].d(A)[sp].d(G)[sp].d([m5C])[sp].d(A)[sp].[moe](A)p.[moe](G)p.[moe](T)[sp].[moe]([m5C])}$$$$ (last 3' nucleoside missing) | 2.5 score 0-7
25 | RNA1{[moe](G)[sp].[moe](A)p.[moe](A)p.[moe]([m5C])p.[moe](A)p.d([m5C])[sp].d([m5C])[sp].d(A)[sp].d(T)[sp].d(G)[sp].d(A)[sp].d([m5C])[sp].d(T)[sp].d(G)[sp].d(A)[sp].[moe](T)p.[moe]([m5C])p.[moe]([m5C])[sp].[moe]([m5C])}$$$$ (last 3' nucleoside missing) | 4 score 0-7
26 | RNA1{[moe](G)[sp].[moe](A)p.[moe](A)p.[moe]([m5C])p.[moe](T)p.d(G)[sp].d(G)[sp].d(A)[sp].d(T)[sp].d(T)[sp].d([m5C])[sp].d(T)[sp].d(G)[sp].d(T)[sp].d(A)[sp].[moe]([m5C])p.[moe](T)p.[moe](T)[sp].[moe](T)}$$$$ (last 3' nucleoside missing) | 4 score 0-7
